“Also recorded” adds a separate entry of the source.
Legend:
[1] = system: MESA/SA and MES-SA/DX5, NALM6 and NALM6/ADR, RPMI8226 and RPMI-DO40 cells; test: Annexin / propidium iodide staining (apoptosis, necrosis); assay type: cell-based; details: 72 hours, graded concentrations
purified tubulin = test: Tubulin polymerization, cell-free assay; assay type: biochemical; details: tubulin 2.00 mg/mL; 1, 15 and 30 μM; 37° C., 100 min; vs vehicle
Description: The effect of the compounds on their ability to inhibit tubulin polymerization, was tested against a vehicle control by evaluating polymerization of purified tubulin in a cell-free assay where tubulin (2.00 mg/mL) was exposed to vehicle control or 1, 15 and 30 μM of the compounds (n=2). Polymerizations were tracked by an increase in fluorescence excitation wavelength is 340-360 nm and emission wavelength at 410-460 nm. Fluorescence was monitored at 37° C. every 30 sec for 100 min.

A2780 cells = test: XTT cytotoxicity, A2780; assay type: cell-based; details: Homo sapiens; A2780, ovarian carcinoma, non-resistant
Description: (§1) The cytotoxic activity of the novel family was evaluated against various tumor cells, including myeloma cells, acute lymphoblastic leukemia cells, acute monocytic leukemia cells, chronic myelogenous leukemia cells, pancreatic cancer cells, breast cancer cells, uterine sarcoma cells, cervix adenocarcinoma cells, ovary cancer cells, melanoma cells, osteosarcoma cells, prostate cancer cells, lung cancer cells, neuroblastoma cells and colorectal adenocarcinoma cells by XTT assay.

RPMI 8226 cells = test: XTT cytotoxicity, RPMI 8226; assay type: cell-based; details: Homo sapiens; RPMI 8226, multiple myeloma, non-resistant; read-out: IC50
Procedure, shortened: (§2)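 Cytotoxicity against the tumour cell lines was determined by XTT assay.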

[2] = system: different cancer cell lines; test: XTT cytotoxicity, various tumor cells; assay type: cell-based; details: XTT assay
Description: as §1

MCF7-VP cells = test: XTT cytotoxicity, MCF7-VP; assay type: cell-based
Procedure, shortened: as §2

MES-SA cells = test: XTT cytotoxicity, MES-SA; assay type: cell-based; details: Homo sapiens, poorly differentiated uterine sarcoma, non-resistant
Procedure, shortened: as §2

[3] = system: acute lymphoblastic leukemia cells; test: XTT cytotoxicity, acute lymphoblastic leukemia cells; assay type: cell-based; details: lowest of the range
Description: as §1

NCI-H69 VCR/R cells = test: XTT cytotoxicity, NCI-H69 VCR/R; assay type: cell-based
Description: as §1

myeloma cell lines = test: XTT cytotoxicity, 10 different myeloma cell lines; assay type: cell-based; details: range over 10 different myeloma cell lines
Description: as §1
When this family of compounds were tested on different cell lines from the same type of tumor with different phenotypes there were no significant differences in cytotoxic sensitivity.

MM1.S cells = test: XTT cytotoxicity, MM1.S; assay type: cell-based; details: Homo sapiens, multiple myeloma, non-resistant, read-out: IC50
Procedure, shortened: as §2

HUVEC cells = test: HUVEC wound scratch-healing migration assay; assay type: cell-based, human
Excerpt: During angiogenesis, endothelial cells proliferate and migrate chemotactically towards angiogenic signals secreted by tumor cells.

[4] = system: colchicine binding site on tubulin protein; test: EBI competition assay, NALM6 cells; assay type: cell-based
MM1.R cells = test: XTT cytotoxicity, MM1.R; assay type: cell-based; details: MM.1R; MM1.R, multiple myeloma, dexamethasone resistant; read-out: IC50
Procedure, shortened: as §2

MCF7 cells = test: XTT cytotoxicity, MCF7; assay type: cell-based; details: Homo sapiens; MCF7, breast adenocarcinoma, non-resistant
Procedure, shortened: as §2

RPMI-LR5 cells = test: XTT cytotoxicity, RPMI-LR5; assay type: cell-based
Procedure, shortened: as §2

[5] = Xenograft murine myeloma model, body weight and toxicity signs; assay type: in vivo; details: intraperitoneally, during the experiment
Description: In vivo anti-cancer efficacy of the molecules was evaluated in a xenograft murine myeloma model. Male SCID mice (6-8 weeks old) were maintained in accordance with Institutional Animal Care Use Committee guidelines. Mice were housed in the Animal Research Facility of Ariel University and experiments were performed in accordance with approved protocols. During the experiment, RPMI8226 myeloma cells in exponential growth were harvested from culture, washed three times with sterile PBS, counted and resuspended in sterile PBS (1.5×10^7cells mouse/0.1 ml PBS) and subcutaneously injected on the right flank of male C.B-17/IcrHsd-Prkdc-scid, […] mice. After two weeks of cells injection, when tumors reached a size between 30-60 mm3, mice were assigned into different groups (n=3-5) and started receiving treatment. Body weights were determined twice weekly along with tumor volume {V=[length×(width)2]/2}measurements using electronical caliper. Mice were sacrificed when mean tumor volume of vehicle treated group reached 1500 mm3, or mice appeared moribund to prevent unnecessary morbidity.
The weight of the tumors was measured at the end of the experiment and expressed as mean tumor weight per group. Body weight is expressed as mean body mice weight per group.

A2780ADR cells = test: XTT cytotoxicity, A2780ADR; assay type: cell-based
Description: as §1

RPMI8226 myeloma cells = test: Xenograft murine myeloma model, antitumor efficacy; assay type: in vivo, mice
Description: In vivo anti-cancer efficacy of the molecules was evaluated in a xenograft murine myeloma model. Male SCID mice (6-8 weeks old) were maintained in accordance with Institutional Animal Care Use Committee guidelines. Mice were housed in the Animal Research Facility of Ariel University and experiments were performed in accordance with approved protocols. […] Mice were sacrificed when mean tumor volume of vehicle treated group reached 1500 mm3, or mice appeared moribund to prevent unnecessary morbidity. Mean tumor volume represents the average of tumor volume in each treatment group during the experiment. The weight of the tumors was measured at the end of the experiment and expressed as mean tumor weight per group. Body weight is expressed as mean body mice weight per group. The individual relative tumor volume (RTV) was defined as Vx/V1, where Vx is the mean tumor volume in mm3 at a given time and V1 at the start of treatment. Relative tumor volume is determined by calculating RTV (%) (mean RTV of treated group)/(mean RTV of control group)). Relative tumor volume inhibition is determined by calculating RTVI (%) (1-RTV %)

For `CCCCCOC(=O)c1[nH]c2c(c1C)C(=O)CC(c1ncco1)C2` (stereo not drawn) [SMS077, pentyl 3-methyl-6-(oxazol-2-yl)-4-oxo-4,5,6,7-tetrahydro-1H-indole-2-carboxylate], the “apoptosis and necrosis (annexin, propidium iodide staining)” value [1] was “induced apoptosis and necrosis; also recorded: induces apoptosis and necrosis of treated cells”, the “rate of tubulin polymerization” value (purified tubulin) was “inhibited the rate of tubulin polymerization in a concentration-dependent manner” and the IC50 (A2780 cells) was 16 nM. The IC50 (RPMI 8226 cells) was 26 nM, the cytotoxic activity [2] was “very potent cytotoxic activity against different cancer cell lines at low nanomolar levels” and the IC50 (MCF7-VP cells; Homo sapiens, MCF7-VP, breast adenocarcinoma, MRP overexpression) was 560 nM. The “IC50 ratio between resistant and non-resistant cells” value (MCF7-VP cells; MCF7-VP / MCF7) was 1.474, the “sensitivity of resistant subline vs parental cells” value (MCF7-VP cells; MCF7-VP vs MCF7) was “same sensitivity” and the IC50 (MES-SA cells) was 128 nM. The IC50 [3] was 10 nM, the IC50 (NCI-H69 VCR/R cells; Homo sapiens, NCI-H69 VCR/R, vincristine resistant) was 48 nM and the “IC50 ratio between resistant and non-resistant cells” value (NCI-H69 VCR/R cells; NCI-H69 VCR/R / NCI-H69) was 0.294. The “resistance of cells to treatment” value (NCI-H69 VCR/R cells; NCI-H69 VCR/R lung carcinoma cells) was “resistant to vincristine but not to SMS077 treatment”, the IC50 (myeloma cell lines) was 14 to 52 nM and the IC50 (MM1.S cells) was 33 nM. For the same molecule, the “wound healing density (HUVEC migration)” value (HUVEC cells) was “decreased wound healing density in a dose and time dependent manner”, the “binding to the colchicine binding site” value [4] was “bound to the colchicine binding site” and the IC50 (MM1.R cells) was 36 nM. For the same molecule, the IC50 (MCF7 cells) was 380 nM, the IC50 (RPMI-LR5 cells; RPMI-LR5, multiple myeloma, melphalan resistant, read-out: IC50) was 19 nM and the “IC50 ratio between resistant and non-resistant cells” value (RPMI-LR5 cells; RPMI-LR5 / RPMI 8226) was 0.731. For the same molecule, the “sensitivity of resistant subline vs parental cells” value (RPMI-LR5 cells; RPMI-LR5 vs RPMI8226 (RPMI-S)) was “no difference in their sensitivity”, the “body weight and other signs of potential toxicity” value [5] was “No significant changes in body weight or other signs of potential toxicity” and the “IC50 ratio between resistant and non-resistant cells” value (A2780ADR cells; A2780ADR / A2780) was 1.938. For the same molecule, the “resistance of cells to treatment” value (A2780ADR cells; A2780ADR ovary carcinoma cells) was “resistant to vincristine but not to SMS077 treatment”, the IC50 (A2780ADR cells; A2780 ADR, A2780ADR, ovarian carcinoma, resistant) was 31 nM and the “decrease of tumor volume as compared to vehicle at the same day” value (“decrease of tumor volume” for short) (RPMI8226 myeloma cells; day 8, intraperitoneally) was 0%. For the same molecule, the “decrease of tumor volume” value (RPMI8226 myeloma cells; day 11, intraperitoneally) was 40%, the “decrease of tumor volume” value (RPMI8226 myeloma cells; day 25, intraperitoneally) was 52% and the “growth inhibition rate (tumor weight at end of experiment)” value (RPMI8226 myeloma cells; intraperitoneally) was 54%.

From US20260226037A1, “MICROTUBULE TARGETING AGENTS” (ARIEL SCIENTIFIC INNOVATIONS LTD., priority 2022, published 2026)
